From paper PMC6556873, “Rapid Covalent-Probe Discovery by Electrophile-Fragment Screening” (Journal of the American Chemical Society, 2019) come the findings set out here.

Series [1] in a line: in vitro. Also on record: species or system CCD841, HEK293. Conditions: human, hb2 cells, read-out: HB-2 Cells Viability (%).
Series [2] deals with T1, OTUB2 (OTUB2A) (Homo sapiens, UniProt Q96DC9).
T1 construct: full length residues 1-234, E. coli BL21(DE3)-R3, His tag removed by TEV, construct 27312 Da
T1 sequence (Q96DC9 1-234): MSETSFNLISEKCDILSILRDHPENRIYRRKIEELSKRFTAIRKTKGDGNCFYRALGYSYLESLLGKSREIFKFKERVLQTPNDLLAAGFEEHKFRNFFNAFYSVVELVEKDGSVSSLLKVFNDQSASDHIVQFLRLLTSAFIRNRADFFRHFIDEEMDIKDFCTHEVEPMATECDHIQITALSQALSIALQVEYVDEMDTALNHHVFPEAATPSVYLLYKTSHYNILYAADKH
Also on record: Intact protein LC/MS covalent labelling, fragments in pools of five, 200 uM each, 4 °C. Conditions: 24 h, 4 °C, pool of five; 200 µM; covalent.

The target of series [3] is T2, NUDT7 (Homo sapiens, UniProt P0C024).
T2 construct: residues 14-235, E. coli, pNIC28-Bsa4, N-terminal His6 tag removed by TEV, construct 26672 Da
T2 sequence (P0C024 14-235): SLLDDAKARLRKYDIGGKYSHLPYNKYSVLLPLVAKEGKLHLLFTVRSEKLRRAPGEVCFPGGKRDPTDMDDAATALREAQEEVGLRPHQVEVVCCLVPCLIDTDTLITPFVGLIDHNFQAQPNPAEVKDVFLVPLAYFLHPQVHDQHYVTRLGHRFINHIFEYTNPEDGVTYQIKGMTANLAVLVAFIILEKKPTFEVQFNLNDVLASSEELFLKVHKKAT
Further details: Intact protein LC/MS covalent labelling, fragments in pools of five, 200 uM each, 4 °C. Conditions: 24 h, 4 °C, pool of five; 200 µM; covalent.

Series [4] deals with T3, BSA (Bos taurus, UniProt P02769).
T3 construct: gene ALB
T3 sequence (P02769 whole entry): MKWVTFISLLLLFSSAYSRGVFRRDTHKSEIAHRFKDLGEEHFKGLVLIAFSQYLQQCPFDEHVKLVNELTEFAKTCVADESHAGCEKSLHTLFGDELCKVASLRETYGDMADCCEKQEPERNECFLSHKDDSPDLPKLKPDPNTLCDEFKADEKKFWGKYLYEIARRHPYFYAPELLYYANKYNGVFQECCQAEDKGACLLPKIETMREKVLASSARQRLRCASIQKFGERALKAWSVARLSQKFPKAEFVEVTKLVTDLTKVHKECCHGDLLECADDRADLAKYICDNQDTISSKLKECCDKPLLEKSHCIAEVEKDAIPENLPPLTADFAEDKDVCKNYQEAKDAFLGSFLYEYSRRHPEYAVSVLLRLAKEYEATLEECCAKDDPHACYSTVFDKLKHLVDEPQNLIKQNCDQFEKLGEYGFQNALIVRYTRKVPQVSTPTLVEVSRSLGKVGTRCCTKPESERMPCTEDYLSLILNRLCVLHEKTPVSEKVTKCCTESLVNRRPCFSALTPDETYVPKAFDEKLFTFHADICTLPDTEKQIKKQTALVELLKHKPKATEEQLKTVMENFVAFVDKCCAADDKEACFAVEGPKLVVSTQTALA
Also on record: Intact protein LC/MS covalent labelling, fragments in pools of five, 200 uM each, 4 °C. Conditions: 24 h, 4 °C, pool of five; 200 µM; covalent.

The target of series [5] is T4, PCAF (Homo sapiens, UniProt Q92831).
T4 construct: gene KAT2B
T4 sequence (Q92831 whole entry): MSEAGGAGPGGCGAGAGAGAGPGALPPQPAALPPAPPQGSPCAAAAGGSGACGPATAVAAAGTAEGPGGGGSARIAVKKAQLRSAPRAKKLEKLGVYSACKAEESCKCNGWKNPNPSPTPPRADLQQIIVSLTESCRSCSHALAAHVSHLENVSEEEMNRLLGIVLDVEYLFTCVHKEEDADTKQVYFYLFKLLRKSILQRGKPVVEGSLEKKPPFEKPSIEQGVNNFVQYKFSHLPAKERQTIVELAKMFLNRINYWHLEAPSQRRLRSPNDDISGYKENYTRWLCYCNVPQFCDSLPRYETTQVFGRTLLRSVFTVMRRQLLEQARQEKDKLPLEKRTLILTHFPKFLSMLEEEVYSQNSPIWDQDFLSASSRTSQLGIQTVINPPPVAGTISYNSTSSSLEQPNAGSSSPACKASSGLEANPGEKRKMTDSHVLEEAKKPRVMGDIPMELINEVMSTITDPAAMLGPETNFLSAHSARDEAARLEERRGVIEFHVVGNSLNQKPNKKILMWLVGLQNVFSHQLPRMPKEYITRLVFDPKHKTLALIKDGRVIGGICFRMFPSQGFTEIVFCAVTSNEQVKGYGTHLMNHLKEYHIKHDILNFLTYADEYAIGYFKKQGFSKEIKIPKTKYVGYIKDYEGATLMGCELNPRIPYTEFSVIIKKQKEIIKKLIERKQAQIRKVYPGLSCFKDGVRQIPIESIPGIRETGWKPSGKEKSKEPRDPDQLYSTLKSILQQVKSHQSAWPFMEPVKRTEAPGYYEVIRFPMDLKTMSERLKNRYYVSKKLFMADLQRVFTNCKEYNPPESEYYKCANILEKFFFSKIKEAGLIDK
Also on record: Intact protein LC/MS covalent labelling, fragments in pools of five, 200 uM each, 4 °C. The settings on record: 24 h, 4 °C, pool of five; 200 µM; covalent.

Series [6] is described as follows: in vitro. Also on record: species or system HB2, HEK293. Conditions: human, ccd841 cells.
Series [7] in a line: in vitro. Further details: species or system HB2, CCD841. The settings on record: human, hek293 cells.

SMILES strings stand for the structures. Read-outs that look alike come from different tables or passages of the source.

With `C=CC(=O)N1CCCN(Cc2cn3cc(Cl)ccc3n2)CC1` [PCM-0102565], the viability at 48 h, 10 µM in series [1] is 106%; in series [6], 104%; in series [7], 105%. In series [2], this compound yielded an OTUB2 of 0. This compound also displayed an NUDT7 in series [3] of 0.18. Besides, in series [4], the BSA is listed as 0. The compound further gave a PCAF in series [5] of 0.

As for `C=CC(=O)NC1CCc2nc(-c3cc(F)ccc3F)cn2C1` (centres unmarked) [PCM-0102566], the values for the viability at 48 h, 10 µM in series [1], in series [6] and in series [7] were 97.4%, 106% and 78%, respectively. In series [2], the OTUB2 was found to be 0. Moreover, the NUDT7 in series [3] came to 0. In series [4], the BSA came out at 0. The same compound returned a PCAF in series [5] of 0.

As for `C=CC(=O)NC1CCC(N2CCCS2(=O)=O)CC1` (centres unmarked) [PCM-0102568], the figures for the viability at 48 h, 10 µM in series [1], in series [6] and in series [7] were 107%, 93.8% and 78%, respectively. For the same compound, the OTUB2 in series [2] came out at 0. Moreover, the NUDT7 in series [3] came out at 0. In addition, in series [4], the BSA was 0. Moreover, the PCAF in series [5] was found to be 0.

For the compound `CC(NC(=O)CCl)C1CC2CCC1C2` (centres unmarked) [PCM-0102572], the viability at 48 h, 10 µM is 92% in series [1], 91.1% in series [6] and 80.7% in series [7]. This compound also yielded an OTUB2 in series [2] of 0. In addition, the NUDT7 in series [3] turned out to be 0. Besides, in series [4], the BSA was found to be 0. The same compound showed a PCAF in series [5] of 0.

`O=C(NC1CCN(C(=O)CCl)CC1)c1ccccc1` [PCM-0102575]: the viability at 48 h, 10 µM turned out to be 63.8% in series [1], 68.2% in series [6] and 40.6% in series [7]. This compound yielded an OTUB2 in series [2] of 0.09. In series [3], the NUDT7 was determined as 0.09. Besides, the BSA in series [4] worked out at 0. This compound also displayed a PCAF in series [5] of 0.

In the case of `O=C(CCl)Nc1c(Cl)cc(Cl)cc1C(=O)O` [PCM-0102576], the viability at 48 h, 10 µM in series [1] turned out to be 100%; in series [6] it was 105%; in series [7], 100%. The compound further displayed an OTUB2 in series [2] of 0. In addition, in series [3], the NUDT7 worked out at 0. In series [4], this compound returned a BSA of 0. In series [5], the PCAF was determined as 0.

Take `Cc1ccc(NC(=O)CCl)cc1I` [PCM-0102577]: the viability at 48 h, 10 µM was 4.6% in series [1], 17.9% in series [6] and 2.4% in series [7]. This compound registered an OTUB2 in series [2] of 0.8. The same compound registered an NUDT7 in series [3] of 0.34. In addition, in series [4], the BSA is reported as 0. This compound also showed a PCAF in series [5] of 0.

As for `O=C(CCl)NCc1ccc2c(c1)OCO2` [PCM-0102578], the viability at 48 h, 10 µM amounted to 97.5% in series [1], 99.9% in series [6] and 85.6% in series [7]. This compound showed an OTUB2 in series [2] of 0.16. The compound further yielded an NUDT7 in series [3] of 0. The compound further came in with a BSA in series [4] of 0. In addition, the PCAF in series [5] stood at 0.

Turning to `Cc1cccc(N(C(=O)CCl)C2C=CS(=O)(=O)C2)c1` (centres unmarked) [PCM-0102579], the viability at 48 h, 10 µM in series [1] came to 29.8%; in series [6], 16.2%; in series [7], 6.4%. Moreover, in series [2], the OTUB2 worked out at 0. Also, in series [3], the NUDT7 was determined as 0.4. This compound came in with a BSA in series [4] of 0. The compound also showed a PCAF in series [5] of 0.

On to `N#Cc1c(NC(=O)CCl)sc2c1CCCC2` [PCM-0102580], for which the viability at 48 h, 10 µM in series [1] worked out at 77.2%; in series [6] it was 78%; in series [7] it was 67.4%. In series [2], this compound gave an OTUB2 of 0.1. This compound registered an NUDT7 in series [3] of 0.72. Besides, the BSA in series [4] worked out at 0. Moreover, the PCAF in series [5] came out at 0.

On to `C=CC(=O)Nc1ccccc1C(F)(F)F` [PCM-0102581], for which the viability at 48 h, 10 µM in series [1] worked out at 108%; in series [6] it was 121%; in series [7], 123%. In series [2], this compound displayed an OTUB2 of 0. The compound also came in with an NUDT7 in series [3] of 0. The BSA in series [4] turned out to be 0. Further, in series [5], the PCAF is listed as 0.

Consider `O=C(CCl)Nc1ccc(N2CCOCC2)cc1` [PCM-0102582], for which the viability at 48 h, 10 µM in series [1] was 74.9%; in series [6], 79.5%; in series [7], 57.2%. The compound further had an OTUB2 in series [2] of 0.54. For the same compound, the NUDT7 in series [3] is 0. For the same compound, the BSA in series [4] is reported as 0. Besides, in series [5], the PCAF is 0.

For the compound `C=CC(=O)NC1CCCc2cnn(C(C)C)c21` (centres unmarked) [PCM-0102583], the viability at 48 h, 10 µM amounted to 105% in series [1], 120% in series [6] and 96.8% in series [7]. For the same compound, in series [2], the OTUB2 came out at 0. The compound further came in with an NUDT7 in series [3] of 0. Also, the BSA in series [4] was determined as 0. In series [5], this compound showed a PCAF of 0.

In the case of `NC(=O)C1CCN(C(=O)CCl)CC1` [PCM-0102584], the viability at 48 h, 10 µM in series [1] turned out to be 105%; in series [6] it was 97.9%; in series [7], 89.8%. The compound also gave an OTUB2 in series [2] of 0. In series [3], this compound gave an NUDT7 of 0. In addition, in series [4], the BSA is recorded as 0. In series [5], this compound showed a PCAF of 0.

`O=C(CCl)Nc1cc2c(cc1Cl)OCCO2` [PCM-0102585]: the viability at 48 h, 10 µM in series [1] is 38.7%; in series [6], 68%; in series [7], 15%. The OTUB2 in series [2] turned out to be 0. Also, the NUDT7 in series [3] is on record as 0.12. The BSA in series [4] was 0. The compound further yielded a PCAF in series [5] of 0.

On to `Cc1cc(SC#N)cc(C)c1NC(=O)CCl` [PCM-0102586], for which the viability at 48 h, 10 µM amounted to 27.3% in series [1], 14.2% in series [6] and 51.6% in series [7]. This compound had an OTUB2 in series [2] of 0. For the same compound, in series [3], the NUDT7 amounted to 0. The same compound yielded a BSA in series [4] of 0. In addition, the PCAF in series [5] is reported as 0.

Regarding `Cc1n[nH]c(C)c1NC(=O)CCl` [PCM-0102588], the values for the viability at 48 h, 10 µM in series [1], in series [6] and in series [7] were 102%, 98.7% and 98.6%, respectively. This compound showed an OTUB2 in series [2] of 0. The NUDT7 in series [3] came to 0. The same compound showed a BSA in series [4] of 0. The compound further yielded a PCAF in series [5] of 0.

For `COC(=O)c1ccccc1N(C)C(=O)CCl` [PCM-0102589], the results for the viability at 48 h, 10 µM in series [1], in series [6] and in series [7] were 92.1%, 89.7% and 58.9%, respectively. The compound also gave an OTUB2 in series [2] of 0. For the same compound, in series [3], the NUDT7 is listed as 0.15. In series [4], this compound had a BSA of 0. Also, the PCAF in series [5] worked out at 0.

Take `O=C(CCl)Nc1cc(C(=O)O)ccc1Cl` [PCM-0102590]: the viability at 48 h, 10 µM is 103% in series [1], 102% in series [6] and 110% in series [7]. For the same compound, the OTUB2 in series [2] stood at 0. Moreover, the NUDT7 in series [3] was 0. Further, the BSA in series [4] amounted to 0. The same compound registered a PCAF in series [5] of 0.

`CN(Cc1ccccc1Br)C(=O)CCl` [PCM-0102592]: the figures for the viability at 48 h, 10 µM in series [1], in series [6] and in series [7] were 27.4%, 71.9% and 39%, respectively. Besides, the OTUB2 in series [2] came out at 0.12. For the same compound, the NUDT7 in series [3] came to 0.14. The compound further gave a BSA in series [4] of 0. Besides, in series [5], the PCAF turned out to be 0.

A word on the viability: it is a read-out of living cells in per cent, often relative to untreated cells.
